From patent US20240197869A1, “HYPERACTIVATORS OF MAMMALIAN DENDRITIC CELLS” (Corner Therapeutics, Inc., priority 2021, published 2024)

Columns and labels:
[1] = system: human monocyte-derived dendritic cells (moDCs); test: Lipid titration: viability of human moDCs (CellTiter-Glo)
Method: Lipid Titration. After 6 days of differentiation into moDC, cells were collected and counted. Cells were replated at 100,000 cells/well in R10 media in 96-well flat bottom tissue culture-treated plates. LPS, serotype 055:B5 (Enzo Life Sciences) was added to a final concentration of 1 μg/mL in each well. After the addition of LPS, lipids were prepared. […] After two days of culture, cell cultures were used for endpoint analyses.
Endpoint Analyses. After culturing moDCs with PAMPs and DAMPs for two days, supernatant and cell samples were collected for analysis. Cells in culture were pelleted by centrifugation at 400×g for 5 min.
Quantification of Cell Viability. Cell viability was assessed by quantifying the presence of ATP as an indicator of metabolically active cells using the CellTiter-Glo Luminescent Cell Viability Assay (Promega). Metabolic activity was assessed following manufacturer's instructions. The CellTiter-Glo reagent was mixed with the cell pellets and remaining supernatant, and transferred to a white, opaque 96-well plate. Luminescence was measured on all wavelengths on a Spectramax iD3 plate reader (Molecular Devices) using an integration time of 500 ms. Percent viability was calculated relative to the control condition of moDCs treated with LPS.
Statistical Analyses. […] For each tested condition, cells from each donor were plated to be tested in triplicate.

[2] = system: human monocyte-derived dendritic cells (moDCs); test: Lipid titration: IL-1β secretion by LPS-activated human moDCs; type: cell-based; settings: for Activity Units (AU) ± SD (lipid activity index): reciprocal of lowest concentration giving IL-1β two-fold over LPS x highest IL-1β signal, lipid 1.3-82.5 μM + LPS
Method: (§1) Quantification of IL-1beta Secretion. IL-1beta secretion was assessed using the ELISA MAX Deluxe Set Human IL-1beta kit (Biolegend). ELISAs were performed according to manufacturer's instructions with the following modifications: i) total sample volume for incubation was reduced from […] the top standard was prepared at […], with two-fold dilutions to […]; and iii) sample incubation was completed overnight at 4 C on an orbital shaker. […] To determine IL-1beta concentration in supernatants, sample IL-1beta concentrations were interpolated using a standard curve via 4PL analysis on GraphPad Prism 9 (GraphPad Software). The interpolated results of samples were then adjusted for any dilutions made to the supernatant.

[3] = system: human monocyte-derived dendritic cells (moDCs); test: DAMP screen: IL-1β secretion by LPS-activated human moDCs (ELISA); type: cell-based
Method: Danger-Associated Molecular Pattern (DAMP) Screen.
as §1

[4] = system: human memory CD4+ T cells; test: Human moDC coculture with memory CD4 T cells: cytokine secretion; type: cell-based; settings: moDC treated with R848 + lipid; limiting anti-CD3; 2 days after T cell addition
Source text: Human moDC coculture with memory CD4 T cells. Human monocytes were isolated from leukopheresis products using Miltenyi StraightFrom LeukoPak CD14 microbeads as directed by manufacturer. Custom PBMC isolation microbead kits from Miltenyi were used to separate PBMCs from red blood cells and granulocytes from the same blood products. After PBMC purification, Miltenyi human memory CD4+ T cell isolation kits were used to negatively select the CD45RO+ fraction. Cells were cryogenically stored until ready for use in experiments.
Human monocytes were differentiated into dendritic cells as previously described using recombinant human GM-CSF and IL-4 for 6 days. moDCs were plated in R10 media at 5E4 cells/well into 96-well U-bottom microplates for hyperactivations. […] T cell stimulating anti-CD3 antibody was added into the culture (with or without blocking anti-IL-1beta antibody) prior to T cell addition. Autologous frozen memory CD4 T cells were thawed, resuspended in R10 media and added at 2.5×10^5 cells/well (ratio 1:5, DC:T cell). After two days incubation, cell culture supernatant was collected and used for measuring cytokine secretion. Commercially available kits such as Biolegend LegendPlex kits were used as directed by manufacturer's protocol to quantify cytokines of interest.
Four donors were tested with each experimental condition tested in triplicate. […]

[5] = system: human monocyte-derived dendritic cells (moDCs); test: DAMP screen: viability of human moDCs (CellTiter-Glo)
[6] = system: human PBMCs; test: Cytokine secretion (IL-1β, IFNγ, TNFα) by human PBMCs; type: cell-based; settings: lipid 82.5 μM combined with R848 1 μg/mL, 2 days
Method: (§2) Isolation of PBMCs from Whole Blood. PBMCs were isolated from whole blood using density gradient centrifugation with Ficoll-Paque PLUS (Cytivia). Whole blood was diluted 1:1 with PBS, layered on top of Ficoll-Paque PLUS and centrifuged at 1000×g for 30 minutes at room temperature. PBMCs were collected, washed twice in PBS, and incubated with Ack lysis buffer (Lonza) to remove any remaining red blood cells.
(§3) Cell Culture and Stimulation. […] Cells were plated at 1×10^5 (canine cells) or 1×10^6 (human cells) per well in 96-well flat bottom tissue culture plates. Lyophilized Vaccigrade R848 (Invivogen) was reconstituted and diluted according to manufacturer's recommendations and added to cells at a final concentration of 1 μg/mL.
Quantification of Cytokine Secretion. IL-1β secretion from human PBMCs was assessed using one of the following kits: ELISA MAX Deluxe Set Human IL-1β kit (Biolegend), Invitrogen Human IL-1β kit, or the Lumit™ Human IL-1β Immunoassay (Promega). IFNγ secretion from human PBMCs was assessed using the ELISA MAX Deluxe Set Human IFNγ (Biolegend) and TNFα secretion from human PBMCs was assessed using the Human TNFα Uncoated ELISA kit (Invitrogen). ELISAs were performed according to manufacturer's instructions with the following modifications: i) total sample+buffer volume for incubation was reduced from 100 μL to 50 μL; ii) the top standard was prepared at […], with two-fold dilutions to […]; and iii) sample incubation was completed overnight at 4 C on an orbital shaker. Lumit™ assays were performed according to manufacturer's instructions. IL-1β secretion from canine PBMCs was assessed using the Canine IL-1β/IL-1F2 DuoSet ELISA (R&D) according to manufacturer's instructions with the following modifications: i) total sample+buffer volume for incubation was reduced from 100 μL to 50 μL; ii) sample incubation was completed overnight at 4° C. on an orbital shaker. For all ELISAs, absorbance was measured at 450 nm, with a 570 nm correction, using a Spectramax M5e plate reader (Molecular Devices). For Lumit™ assays, luminescence was measured on all wavelengths using a Spectramax M5e plate reader (Molecular Devices) with an integration time of 500 ms. To determine cytokine concentrations in supernatants, sample concentrations were interpolated using a standard curve via 4PL analysis on GraphPad Prism 9 (GraphPad Software). The interpolated results of samples were then adjusted for any dilutions made to the supernatant.

[7] = system: non-human primate PBMCs; test: Cytokine secretion by non-human primate PBMCs (LegendPlex); type: cell-based, cynomolgus macaques
Method: Non-human primate PBMC hyperactivation. Whole blood from cynomolgus macaques was diluted with an equal volume of PBS. A solution of 90% Ficoll-Paque PLUS and 10% RPMI was made, and diluted whole blood was overlayed on top of the diluted Ficoll. Cells were centrifuged at 1000 rcf for 30 minutes at room temperature with no brakes. The buffy coat layer was collected and washed twice with PBS. If red blood cell contamination was present, cells were incubated in ACK lysis buffer for 2 minutes before being washed with PBS to remove lysed red blood cells.
Isolated PBMC were plated at 1×10^6 cells/well and cultured with or without hyperactivating stimuli. After 2 days incubation, cells were assessed for viability, and cell culture supernatant was used to measure cytokine output. Commercially available kits such as Biolegend LegendPlex kits were used as directed by manufacturer's protocol to quantify cytokines of interest.
PBMC were obtained from 13 cynomolgus macaques. Each activation condition was tested in triplicate, and the mean value of the triplicate is graphed for the animal sample. Repeated measures one-way ANOVA was used to test for statistical significance followed by Dunnett's multiple comparisons test.

[8] = system: canine peripheral blood mononuclear cells (PBMCs); test: Viability of canine PBMCs (CellTiter-Glo); type: cell-based; settings: lipid combined with R848, 2 days; relative to R848 alone
Method: as §2, §3
(§4) Quantification of Cell Viability.

[9] = system: human PBMCs; test: Viability of human PBMCs (CellTiter-Glo); type: cell-based; settings: 2 days post-activation; lipids combined with R848
Method: as §2, §3, §4

[10] = 10.3 μM lipid + LPS 1 μg/mL, 2 days, relative to LPS-treated moDCs, Table 1-5
[11] = 10.3 μM lipid + LPS 1 μg/mL, 2 days, Table 1-5
[12] = 20.6 μM lipid + LPS, human moDCs, 4 donors, mean (SD in wrapped line below)
[13] = 41.3 μM lipid + LPS 1 μg/mL, 2 days, Table 1-2
[14] = 82.5 μM lipid + LPS, selected lipids, Table 1-3 (repeats Table 1-1)
[15] = 41.3 μM lipid + LPS 1 μg/mL, 2 days, relative to LPS-treated moDCs, Table 1-2
[16] = 82.5 μM lipid + LPS 1 μg/mL, 2 days, relative to LPS-treated moDCs, Table 1-1
[17] = 82.5 uM lipid + R848 vs R848 alone, 2 days

Row | SMILES | Relative Viability (%) ± SD [1, 10] [%] | IL-1β secretion [2, 11] [pg/mL] | IL-1β secretion [2, 12] [pg/mL] | Activity Units (AU) ± SD (lipid activity index) [2] [AU] | IL-1β secretion [3, 13] [pg/mL] | IL-1β secretion [3, 14] [pg/mL] | Relative Viability (%) ± SD [5, 15] [%] | Relative Viability (%) ± SD [5, 16] [%] | Relative Viability (%) ± SD [5, 14] [%] | other results
1 | CCCCCCCCCC(=O)OC[C@@H](O)COP(=O)([O-])OCC[N+](C)(C)C [10:0 LYSO PC] | 100.5 | 35.7 | 35.2 | 0.00 ± 0.00 | 33.3 | 37.8 | 97.8 | 95.2 | 95.2 | Relative Viability (%) ± SD ([1]; 20.6 μM lipid + LPS, human moDCs, 4 donors, relative to LPS alone): 100.4%; IFN-gamma (Th1 response) from cocultured memory CD4 T cells (in words) [4]: not detected
2 | CCCCCCCCCCCCCCCC(=O)OC[C@H](COP(=O)([O-])OCC[N+](C)(C)C)OC(=O)CCCC(=O)O [PGPC, 1-palmitoyl-2-glutaryl-sn-glycero-3-phosphocholine, reference compound] | 98.5 | 52.8 | 69.2 | 3.46 ± 4.14 | 132.9 | 271.6 | 87.2 | 58.6 | 58.6 | IL-1β secretion (in words) [6]: did not induce substantially higher levels of IL-1β than R848 alone; cytokine fold changes relative to R848 alone (in words) ([7]; 41.3 uM lipid + R848): not as markedly increased; IL-1beta output (in words) ([7]; 82.5 uM lipid + R848 1 μg/mL vs R848 alone, 2 days): increased the IL-1beta output; IFN-beta secretion (in words) [7, 17]: increased; IFN-gamma secretion (in words) [7, 17]: significantly increased; IL-8 secretion (in words) [7, 17]: increased; IL-17a secretion (in words) [7, 17]: increased; IL-23 secretion (in words) [7, 17]: increased; relative cell viability (in words) [8]: somewhat toxic to canine PBMCs; human PBMC viability (in words) [9]: not observed to be toxic; moDC viability (in words) ([5]; human moDCs, lipid screens of Example 1): not observed to be toxic
